{"source": "patent US7851653B2", "about": "“Method of creating a solvent-free polymeric silicon-containing quaternary ammonium antimicrobial agent having superior sustained antimicrobial properties” (priority 2005, dated 2010)", "key": {"[1]": {"system": "E. coli", "test": "ASTM E2149-01 on treated cotton swatches before and after accelerated laundering AATCC 61-1996", "assay_type": "cell-based", "experimental": "(§1) Antimicrobial testing of the cast PVC films of Example 4 was carried out essentially as described in the ASTM designation E 2149-01 entitled, “Standard test Method for Determining the Antimicrobial Activity of Immobilized Antimicrobial Agents under Dynamic Contact Conditions.” This test is designed to evaluate the antimicrobial properties of materials, which contain active agents that are non-leaching. The method is described briefly below.\nE. coli was grown overnight in rich media in an incubator-shaker at 37° C. while shaking at 300 rpm. After 18 hours of incubation, the bacteria were removed from the incubator and the optical density at 660 nm was measured. The culture was diluted until the optical density corresponds to a bacterial concentration of between 1×10^8 and 3×10^8 Colony Forming Units (CFU) per milliliter. The bacteria were further diluted in phosphate buffer (0.3 mM KPO4 at pH 7.2) such that the working concentration was 1×10^6 to 3×10^6 CFU/mL. Test specimens were added to sterile 15 mL test tubes followed by the addition of 3 mL of the bacterial solution. An aliquot was immediately removed from the flask, serially diluted, and used to inoculate Petri plates containing nutrient agar. The plates were incubated overnight and the concentration of bacteria (CFU/mL) was thus determined. This represents the Time 0 (T0) control. The tube containing the sample was placed in a shaking incubator at 37° C. and 300 rpm for one hour, at which time another aliquot was taken and tested as above. This is the treated sample (TF). All tests were controlled by the inclusion of a tube that contained an untreated sample and a flask with no sample but with bacteria. […] Log kill is a standard method to establish the ability of antimicrobial agents to destroy microorganisms. A log kill of 5.0 means that 100,000 microorganisms were destroyed on contact with the treated surface. A log kill of 6.0 establishes that 1,000,000 microorganisms were destroyed on contact with the treated surface. A log kill in excess of 5.0 is typically interpreted as an exceptionally active antimicrobial agent.\nUnbleached cotton fabric was treated with various concentration levels of both monomeric 3-(trimethoxysilyl) propyldimethyloctadecyl ammonium chloride and the homopolymer of 3-(trimethoxysilyl) propyldimethyloctadecyl ammonium chloride as prepared in Example 2. In all cases 2 inch (5.1 cm) by 2 inch (5.1 cm) swatches of fabric were treated by immersing them in an aqueous solution containing the respective concentration of monomeric or polymeric 3-(trimethoxysilyl) propyldimethyloctadecyl ammonium chloride for a minimum of ten minutes. The swatches were subsequently removed from the aqueous solution and air-dried overnight. The swatches were analyzed for antimicrobial activity using ASTM E2149-01 as described in Example 5 followed by an accelerated laundering test according to AATCC 61-1996, which simulates multiple laundering effects. The swatches were again analyzed for antimicrobial activity according to ASTM E2149-01 to determine the effect of laundering on the antimicrobial activity. Antimicrobial activity is reported as percent reduction in E. coli concentration."}, "[2]": {"system": "E. coli", "test": "minimum inhibitory concentration (MIC) using E. coli", "assay_type": "cell-based", "conditions": "Escherichia coli", "experimental": "Two volumes of 0.01N NH4OH in water were added slowly to one volume of a 42% by weight solution of 3-(trimethoxysilyl) propyldimethyloctadecyl ammonium chloride in methanol while stirring at room temperature. After ten minutes an additional two volumes of 0.01N NH4OH were added, stirring continued for an additional ten minutes. An additional five volumes of 0.1N NH4OH were added and stirred for an additional ten minutes. The methanol and NH4OH were removed by evaporation and the resulting polymer concentrated to 5% (wt/wt) in a rotary evaporator. The solution was dried to a methanol-free dry powder. Infrared and NMR spectroscopy confirmed the resultant powder was a homopolymer of (trimethoxysilyl) propyldimethyloctadecyl ammonium chloride."}, "[3]": {"test": "carbon tetrachloride (CTC) activity of activated carbon, ASTM Method D3467", "assay_type": "physicochemical", "experimental": "Determining whether the impregnation of the carbon with antimicrobial agents had any adverse effect on the adsorption properties of the carbon was accomplished by testing the carbon tetrachloride (CTC) activity of the carbon prior to impregnation and following impregnation with the monomer and polymer forms of the antimicrobial agent. The CTC activity testing was performed by a vendor in accordance with ASTM Method […]."}, "[4]": {"system": "E. coli", "test": "ASTM E 2149-01 antimicrobial activity of immobilized agents under dynamic contact conditions (dynamic shake flask test)", "assay_type": "cell-based", "experimental": "as §1\nE. coli was grown overnight in rich media in an incubator-shaker at 37° C. while shaking at 300 rpm. After 18 hours of incubation, the bacteria were removed from the incubator and the optical density at 660 nm was measured. The culture was diluted until the optical density corresponds to a bacterial concentration of between 1×10^8 and 3×10^8 Colony Forming Units (CFU) per milliliter. The bacteria were further diluted in phosphate buffer (0.3 mM KPO4 at pH 7.2) such that the working concentration was 1×10^6 to 3×10^6 CFU/mL. Test specimens were added to sterile 15 mL test tubes followed by the addition of 3 mL of the bacterial solution. An aliquot was immediately removed from the flask, serially diluted, and used to inoculate Petri plates containing nutrient agar. The plates were incubated overnight and the concentration of bacteria (CFU/mL) was thus determined. This represents the Time 0 (T0) control. […]"}}, "data": [{"molecule": "CCCCCCCCCCCCCCCCCC[N+](C)(C)CCC[Si](OC)(OC)OC.[Cl-]", "note": "[Monomer, 3-(trimethoxysilyl) propyldimethyloctadecyl ammonium chloride]", "values": [{"measurement": "% Reduction, laundered", "setting": "[1]; 0.010 % active in solution", "value": 0, "unit": "%"}, {"measurement": "% Reduction, unlaundered", "setting": "[1]; 0.010 % active in solution", "value": 22, "unit": "%"}, {"measurement": "% Reduction, laundered", "setting": "[1]; 0.025 % active in solution", "value": 0, "unit": "%"}, {"measurement": "% Reduction, unlaundered", "setting": "[1]; 0.025 % active in solution", "value": 38, "unit": "%"}, {"measurement": "% Reduction, laundered", "setting": "[1]; 0.050 % active in solution", "value": 98.86, "unit": "%"}, {"measurement": "% Reduction, unlaundered", "setting": "[1]; 0.050 % active in solution", "value": 95, "unit": "%"}, {"measurement": "% Reduction, laundered", "setting": "[1]; 0.075 % active in solution", "value": 99.19, "unit": "%"}, {"measurement": "% Reduction, unlaundered", "setting": "[1]; 0.075 % active in solution", "value": 99.59, "unit": "%"}, {"measurement": "% Reduction, laundered", "setting": "[1]; 0.100 % active in solution", "value": 99.91, "unit": "%"}, {"measurement": "% Reduction, unlaundered", "setting": "[1]; 0.100 % active in solution", "value": 99.99, "unit": "%"}, {"measurement": "% Reduction, laundered", "setting": "[1]; 0.25 % active in solution", "value": 99.99, "unit": "%"}, {"measurement": "% Reduction, unlaundered", "setting": "[1]; 0.25 % active in solution", "value": 99.99, "unit": "%"}, {"measurement": "MIC", "setting": "[2]", "value": 0.98, "unit": "µg/mL"}, {"measurement": "(Wt.) % CTC", "setting": "[3]; activated carbon treated at 0.1 wt. % agent", "value": "77.6 (Wt.) %"}, {"measurement": "(Wt.) % CTC", "setting": "[3]; activated carbon treated at 0.25 wt. % agent", "value": "73.4 (Wt.) %"}, {"measurement": "(Wt.) % CTC", "setting": "[3]; activated carbon treated at 0.5 wt. % agent", "value": "75.4 (Wt.) %"}, {"measurement": "Log Kill", "setting": "[4]; coconut shell activated carbon treated at 0.1 wt. % agent", "value": "None"}, {"measurement": "Log Kill", "setting": "[4]; coconut shell activated carbon treated at 0.25 wt. % agent", "value": 6.11}]}]}
